{"source": "patent US20040043920A1", "about": "“Compound for chelating a metal, radiopharmaceutical, manufacturing process therefor, and diagnostic kit” (priority 2000, published 2004)", "key": {"[1]": {"assay": "Brain distribution in the rat: crossing of the blood-brain barrier and striatum/cerebellum ratio", "type": "in vivo", "procedure": "The model chosen is the rat. Depending on the compounds, we performed one or two sacrifice times (30 minutes or 1 hour).\nAt the times chosen, the brains were removed and the areas of interest were isolated and counted.\nthe crossing of the blood-brain barrier by the compound under consideration,\na striatum/cerebellum ratio."}, "[2]": {"assay": "Bioavailability (biodistribution) of radiolabelled Lys-Lys bis-dithiocarbamate in rats", "type": "in vivo", "conditions": "rat", "procedure": "(§1) The molecule was radiolabelled as described in Example (29). The radiolabelled compound is then isolated by HPLC, evaporated and taken up in 0.9% saline medium. The bioavailability in rats gives the following results (see Table 1):\ntime 30 minutes and 60 minutes: 3 animals per point,\ntime 3 hours: 2 animals per point,\ntime 24 hours: 1 animal per point.\nThe results are expressed as a percentage of dose injected per organ."}, "[3]": {"assay": "HPLC analysis of rats' urine for unchanged complex", "type": "in vivo, rat", "conditions": "rats' urine collected 1 hour 30 minutes after injection", "procedure": "as §1\nThe rats' urine was collected 1 hour 30 minutes after injection and analysed by HPLC. The result of this analysis is 87% of unchanged complex."}}}
{"smiles": "Cc1ccc(C2CC3CCC(C2COC(=O)C2CCCCNC(=S)[S][Tc](#[N])[S]C(=S)NCCCCC(=O)N2)N3C)cc1", "note": "(centres unmarked) [Compound 52]", "values": [{"measurement": "Biodistribution: cerebellum", "setting": "[1]; 30′", "value": "30′: cerebellum: 0.114%"}, {"measurement": "Biodistribution: crossing of blood-brain barrier", "setting": "[1]; 30′", "value": "barrier: 0.358%"}, {"measurement": "Biodistribution: striatum", "setting": "[1]; 30′", "value": "striatum: 0.133%"}, {"measurement": "S/C (striatum/cerebellum ratio)", "setting": "[1]; 30′", "value": 1.17}, {"measurement": "Biodistribution: cerebellum", "setting": "[1]; 1 h", "value": "1 h: cerebellum: 0.065%"}, {"measurement": "Biodistribution: crossing of blood-brain barrier", "setting": "[1]; 1 h", "value": "barrier: 0.182%"}, {"measurement": "Biodistribution: striatum", "setting": "[1]; 1 h", "value": "striatum: 0.064%"}, {"measurement": "S/C (striatum/cerebellum ratio)", "setting": "[1]; 1 h", "value": 0.98}]}
{"smiles": "NC(CCCCNC(=S)S)C(=O)NC(CCCCNC(=S)S)C(=O)O", "note": "(centres unmarked) [Lys-Lys Bis-Dithiocarbamate]", "values": [{"measurement": "percentage of dose injected per organ, adrenals", "setting": "[2]; 30 min", "value": "0.02 percentage of dose injected per organ"}, {"measurement": "percentage of dose injected per organ, adrenals", "setting": "[2]; 1 h", "value": "0.01 percentage of dose injected per organ"}, {"measurement": "percentage of dose injected per organ, adrenals", "setting": "[2]; 3 h", "value": "0.01 percentage of dose injected per organ"}, {"measurement": "percentage of dose injected per organ, adrenals", "setting": "[2]; 24 h", "value": "0.00 percentage of dose injected per organ"}, {"measurement": "percentage of dose injected per organ, bladder", "setting": "[2]; 30 min", "value": "0.47 percentage of dose injected per organ"}, {"measurement": "percentage of dose injected per organ, bladder", "setting": "[2]; 1 h", "value": "0.32 percentage of dose injected per organ"}, {"measurement": "percentage of dose injected per organ, bladder", "setting": "[2]; 3 h", "value": "0.05 percentage of dose injected per organ"}, {"measurement": "percentage of dose injected per organ, bladder", "setting": "[2]; 24 h", "value": "0.01 percentage of dose injected per organ"}, {"measurement": "percentage of dose injected per organ, blood", "setting": "[2]; 30 min", "value": "0.67 percentage of dose injected per organ"}, {"measurement": "percentage of dose injected per organ, blood", "setting": "[2]; 1 h", "value": "0.34 percentage of dose injected per organ"}, {"measurement": "percentage of dose injected per organ, blood", "setting": "[2]; 3 h", "value": "0.20 percentage of dose injected per organ"}, {"measurement": "percentage of dose injected per organ, blood", "setting": "[2]; 24 h", "value": "0.11 percentage of dose injected per organ"}, {"measurement": "percentage of dose injected per organ, brain", "setting": "[2]; 30 min", "value": "0.03 percentage of dose injected per organ"}, {"measurement": "percentage of dose injected per organ, brain", "setting": "[2]; 1 h", "value": "0.01 percentage of dose injected per organ"}, {"measurement": "percentage of dose injected per organ, brain", "setting": "[2]; 3 h", "value": "0.01 percentage of dose injected per organ"}, {"measurement": "percentage of dose injected per organ, brain", "setting": "[2]; 24 h", "value": "0.01 percentage of dose injected per organ"}, {"measurement": "percentage of dose injected per organ, caecum", "setting": "[2]; 30 min", "value": "0.31 percentage of dose injected per organ"}, {"measurement": "percentage of dose injected per organ, caecum", "setting": "[2]; 1 h", "value": "0.18 percentage of dose injected per organ"}, {"measurement": "percentage of dose injected per organ, caecum", "setting": "[2]; 3 h", "value": "0.11 percentage of dose injected per organ"}, {"measurement": "percentage of dose injected per organ, caecum", "setting": "[2]; 24 h", "value": "0.66 percentage of dose injected per organ"}, {"measurement": "percentage of dose injected per organ, colon", "setting": "[2]; 30 min", "value": "0.46 percentage of dose injected per organ"}, {"measurement": "percentage of dose injected per organ, colon", "setting": "[2]; 1 h", "value": "0.23 percentage of dose injected per organ"}, {"measurement": "percentage of dose injected per organ, colon", "setting": "[2]; 3 h", "value": "0.19 percentage of dose injected per organ"}, {"measurement": "percentage of dose injected per organ, colon", "setting": "[2]; 24 h", "value": "0.87 percentage of dose injected per organ"}, {"measurement": "percentage of dose injected per organ, heart", "setting": "[2]; 30 min", "value": "0.21 percentage of dose injected per organ"}, {"measurement": "percentage of dose injected per organ, heart", "setting": "[2]; 1 h", "value": "0.10 percentage of dose injected per organ"}, {"measurement": "percentage of dose injected per organ, heart", "setting": "[2]; 3 h", "value": "0.06 percentage of dose injected per organ"}, {"measurement": "percentage of dose injected per organ, heart", "setting": "[2]; 24 h", "value": "0.03 percentage of dose injected per organ"}, {"measurement": "percentage of dose injected per organ, intestine", "setting": "[2]; 30 min", "value": "20.55 percentage of dose injected per organ"}, {"measurement": "percentage of dose injected per organ, intestine", "setting": "[2]; 1 h", "value": "32.92 percentage of dose injected per organ"}, {"measurement": "percentage of dose injected per organ, intestine", "setting": "[2]; 3 h", "value": "51.4 percentage of dose injected per organ"}, {"measurement": "percentage of dose injected per organ, intestine", "setting": "[2]; 24 h", "value": "0.49 percentage of dose injected per organ"}, {"measurement": "percentage of dose injected per organ, kidneys", "setting": "[2]; 30 min", "value": "4.55 percentage of dose injected per organ"}, {"measurement": "percentage of dose injected per organ, kidneys", "setting": "[2]; 1 h", "value": "4.18 percentage of dose injected per organ"}, {"measurement": "percentage of dose injected per organ, kidneys", "setting": "[2]; 3 h", "value": "3.87 percentage of dose injected per organ"}, {"measurement": "percentage of dose injected per organ, kidneys", "setting": "[2]; 24 h", "value": "2.65 percentage of dose injected per organ"}, {"measurement": "percentage of dose injected per organ, liver", "setting": "[2]; 30 min", "value": "14.38 percentage of dose injected per organ"}, {"measurement": "percentage of dose injected per organ, liver", "setting": "[2]; 1 h", "value": "9.08 percentage of dose injected per organ"}, {"measurement": "percentage of dose injected per organ, liver", "setting": "[2]; 3 h", "value": "3.84 percentage of dose injected per organ"}, {"measurement": "percentage of dose injected per organ, liver", "setting": "[2]; 24 h", "value": "1.33 percentage of dose injected per organ"}, {"measurement": "percentage of dose injected per organ, lungs", "setting": "[2]; 30 min", "value": "0.43 percentage of dose injected per organ"}, {"measurement": "percentage of dose injected per organ, lungs", "setting": "[2]; 1 h", "value": "0.28 percentage of dose injected per organ"}, {"measurement": "percentage of dose injected per organ, lungs", "setting": "[2]; 3 h", "value": "0.15 percentage of dose injected per organ"}, {"measurement": "percentage of dose injected per organ, lungs", "setting": "[2]; 24 h", "value": "0.08 percentage of dose injected per organ"}, {"measurement": "percentage of dose injected per organ, spleen", "setting": "[2]; 30 min", "value": "0.13 percentage of dose injected per organ"}, {"measurement": "percentage of dose injected per organ, spleen", "setting": "[2]; 1 h", "value": "0.09 percentage of dose injected per organ"}, {"measurement": "percentage of dose injected per organ, spleen", "setting": "[2]; 3 h", "value": "0.05 percentage of dose injected per organ"}, {"measurement": "percentage of dose injected per organ, spleen", "setting": "[2]; 24 h", "value": "0.04 percentage of dose injected per organ"}, {"measurement": "percentage of dose injected per organ, stomach", "setting": "[2]; 30 min", "value": "8.24 percentage of dose injected per organ"}, {"measurement": "percentage of dose injected per organ, stomach", "setting": "[2]; 1 h", "value": "3.36 percentage of dose injected per organ"}, {"measurement": "percentage of dose injected per organ, stomach", "setting": "[2]; 3 h", "value": "2.64 percentage of dose injected per organ"}, {"measurement": "percentage of dose injected per organ, stomach", "setting": "[2]; 24 h", "value": "0.08 percentage of dose injected per organ"}, {"measurement": "percentage of dose injected per organ, urine", "setting": "[2]; 30 min", "value": "14.39 percentage of dose injected per organ"}, {"measurement": "percentage of dose injected per organ, urine", "setting": "[2]; 1 h", "value": "14.70 percentage of dose injected per organ"}, {"measurement": "percentage of dose injected per organ, urine", "setting": "[2]; 3 h", "value": "0.44 percentage of dose injected per organ"}, {"measurement": "percentage of dose injected per organ, urine", "setting": "[2]; 24 h", "value": "0.05 percentage of dose injected per organ"}, {"measurement": "unchanged complex in urine", "setting": "[3]", "value": 87, "unit": "%"}]}
